Measurements: article PMC4472782, “Antibacterial Characterization of Novel Synthetic Thiazole Compounds against Methicillin-Resistant Staphylococcus pseudintermedius” (PLoS ONE, 2015)
In brackets after ≈: the same amount, converted by molar mass.

How the values were obtained:
[1] = test system: MRSP SP3; assay: Checkerboard assay of thiazole compounds with oxacillin; format: cell-based, Staphylococcus pseudintermedius
Experimental: The relationship between the thiazole compounds and oxacillin was assessed via a standard checkerboard assay. Bacteria (MRSP SP3) equivalent to a McFarland standard of 0.5 were prepared in PBS. The bacteria were next diluted in MHB to achieve a starting cell density of 1 × 10^5 CFU/mL. MHB was transferred to all wells of a 96-well microtiter plate. […] Oxacillin was serially diluted along the abscissa of the microtiter plate while the thiazole compound was serially diluted along the ordinate. The plate was incubated for 22–24 hours at 37°C. The MIC of the test compound in combination with oxacillin was determined as the lowest concentration of each compound/antibiotic where no visible growth of bacteria was observed. The fractional inhibitory concentration index (ƩFIC) was calculated for each combination as described previously. A synergistic relationship was classified as an FIC index less than or equal to 0.5. […]

[2] = test system: methicillin-sensitive Staphylococcus pseudintermedius; assay: MIC by broth microdilution against MSSP clinical isolates; format: cell-based; details: nine MSSP isolates, triplicate
Experimental: Fifteen isolates of S. pseudintermedius (nine MSSP and six MRSP), identified at the Indiana Animal Disease Diagnostic Laboratory from specimens collected from dogs admitted to the small animal teaching hospital at Purdue University, were included in the study. The specimens were not collected specifically for this research study but were obtained from patients admitted to the hospital for treatment. Clinical specimens were inoculated onto 5% sheep blood agar and incubated at 35°C for 18–24 hours. Standard methods including examination of colony morphology and hemolysis and biochemical tests such as tube coagulase, Voges-Proskauer (VP) and fermentation tests for maltose, trehalose and lactose, were used in addition to matrix-assisted laser desorption ionization time of flight mass spectrometry to identify isolates. Antimicrobial susceptibility was determined by broth microdilution using the SensiTitre (Thermofisher Scientific).
Bacteria were prepared in phosphate-buffered saline (PBS) until a McFarland standard of 0.5 was achieved. The solution was subsequently diluted 1:300 in Mueller-Hinton broth (MHB) to reach a starting inoculum of 1 × 10^5 colony-forming units (CFU/mL). Bacteria were then transferred to a 96-well microtiter plate. Thiazole compounds and antibiotics were added (in triplicate) to wells in the first row of the microtiter plate and then serially diluted along the vertical axis. […] The MIC was categorized as the concentration where there was no visible growth of bacteria observed.

[3] = test system: MRSP SP3; assay: Post-antibiotic effect against MRSP; format: cell-based, Staphylococcus pseudintermedius; details: 4 × MIC for one hour
Experimental: A tube containing untreated bacterial cells served as a control. Afterward, the compound/antibiotic was washed out by diluting bacteria 1:1000 in MHB. Counts of CFU for all cultures were obtained after washing. Aliquots (100 μL) of bacteria were removed every hour (for 10 hours), serially diluted in PBS, and plated on TSA plates. TSA plates were incubated for 20 hours at 37°C before CFU values were determined.

CCCCC#Cc1ccc(-c2nc(C)c(/C(C)=N/NC(=N)N)s2)cc1 [Compound 3]
relationship with oxacillin ([1]; checkerboard assay): synergistic | ƩFIC ([1]; combination with oxacillin, ≤ 0.5 synergistic, > 0.5 to ≤ 4.0 indifference, > 4 antagonistic): 0.38 | MIC50 ([2]; lowest concentration inhibiting growth in 50% of isolates): 0.71 µg/mL (≈ 2.01 µM) | MIC ([2]; read-out: MIC Range): 0.18 to 0.94 µg/mL (≈ 0.509 to 2.66 µM) | Post-antibiotic Effect [3]: >9 h
